In one series the test system is apomorphine climbing. Description: Climbing Mouse Assay (apomorphine-induced climbing). In kind it is in vivo, mice (CK-1 male). The following applies: ip, read-out: CLIMBING MOUSE ASSAY (ED50 mg/kg, ip). The procedure: Antipsychotic activity is determined in the climbing mice assay by a method similar to those described by P. Protais, et al, Psychopharmacol.
Subject […] male mice (23-27 grams) are group-housed under standard laboratory conditions. The mice are individually placed in wire mesh stick cages (4"×10") and are allowed one hour for adaption and exploration of the new environment.
For evaluation of climbing, 3 readings are taken at 10, 20, and 30 minutes after apomorphine administration according to the following scale:
Mice consistently climbing before the injection of apomorphine are discarded.
With full-developed apomorphine climbing, the animals are hanging on to the cage walls, rather motionless, over long periods of time. By contrast, climbs due to mere motor stimulation usually only last a few seconds.
The climbing scores are individually totaled (maximal score: 6 per mouse over 3 readings) and the total score of the control group (vehicle intraperitoneally, apomorphine subcutaneously) is set to 100%.

Series [1] deals with postsynaptic dopamine receptors. Nature of the series: Apomorphine stereotypy inhibition in rats (APO-S). In kind it is in vivo, male Wistar rats. Particulars: ip, apomorphine 1.5 mg/kg s.c. The procedure: APOMORPHINE STEREOTYPY INHIBITION IN RATS
For a primary screen, a group size of six is used. Drug is administered one hour prior to scoring and the animals are placed in individual clear plastic cages (24×14×13 cm). The control group receives vehicle. Apomorphine is prepared at a concentration of 15 mg/10 ml in a […] ascorbic acid stock solution prepared with 30 mg of ascorbic acid in 100 ml of 1% saline to increase the stability of the apomorphine while in solution. […] Stereotypic behavior is noted 10 minutes later. […] Stereotypic behavior is defined as sniffing, licking or chewing behavior which occurs in a repetitive manner and is continuous for a 10-second period in the presence of white noise. The animal is considered protected if this behavior is interrupted. The percent effectiveness of a drug is determined by the number of animals protected in each group.
A dose-response is determined in the same manner as a primary screen except that a group size of 10 is used and the animals are dosed in a randomized manner. One group receives vehicle. ED50 values for inhibition of stereotypy are calculated by means of Litchfield and Wilcoxon Analysis.

Series [2] relates to dopamine neurons, ventral tegmental area (A10). Description: Chronic single-unit dopamine neuron sampling, A10 region. In kind it is in vivo, male Wistar rats. Particulars: ip, once a day for 21 days, vs vehicle; dose 20 mg/kg for the hydrobromide compound. The procedure:
Dopamine Neuron Sampling.
Compounds were prepared as percent base.

The subject of series [3] is dopamine neurons, substantia nigra (A9). Description: Chronic single-unit dopamine neuron sampling, A9 region. The following applies: for % Change in A9 region (dopamine neuron sampling): ip, once a day for 21 days, vs vehicle, dose 20 mg/kg for the hydrobromide compound.
Description: Dopamine Neuron Sampling. Male Wistar rats (280-360 grams) were used in this procedure. They were housed for at least 48 hours in a climate-controlled vivarium with food and water continuously available. Each rat was initially anesthetized with chloral hydrate (400 mg/kg ip) and maintained with additional injections as needed throughout the experiment. The animal was mounted in a stereotaxic apparatus (Kopf, model 900). The cranium was exposed, cleaned of connective tissue and dried. The skull overlying both the substantia nigra [A9:anterior (A) 3000-3400 microns, lateral (L) 1800-2400 microns from lambda)] and the ventral tegmental area (A10: A3000-3400 microns, L 400-1000 microns from lambda)^47 was removed. Using the dura as a point of reference, a micropipette driven by a hydraulic microdrive was lowered through the opening in the skull at vertical 6000-8500 microns. Spontaneously firing dopamine neurons within both the substantia nigra and the ventral tegmental areas were counted by lowering the electrode into twelve separate tracks (each track separated from the other by 200 microns) in each region. The sequence of the tracks was kept constant, forming a block of tissue which could be repoducibly located from animal to animal.
Extracellular neuronal signals were sampled using a single barrel micropipette approximately one micron at its tip, and filled with 2M NaCl saturated with 1% pontamine sky blue dye. The in vitro impedance of this piper (measured with a Winston Electronics Co., BL-1000 Micro Electrode Tester) was between 5 and 10 megaohms. […] Only cells whose electrophysiological characteristics matched those previously established for midbrain dopamine neurons were counted.
At the end of each experiment, the location of the last recorded track tip was marked by passing 25 microampere cathodal current through the recording micropipette barrel for 15 minutes in order to deposit a spot of dye. The rat was sacrificed; the brain was then removed, dissected and frozen on a bed of dry ice. Frozen serial sections (20 microns in width) were cut, mounted, and stained with cresyl violet and examined using a light microscope.
Animals pretreated with vehicle prior to neuronal sampling served as controls. Compounds were prepared as percent base. Each compound was suspended in distilled water and one drop of Tween 80, and kept constantly agitated during dosing. All compounds were delivered at a dodge volume of 1 mg/kg by the intraperitoneal route. For animals used in the chronic single-unit, dopamine neuron sampling assay, the compounds were administered once a day for 21 days, and dopamine neuron sampling was begun two hours after the last dose on the 21st day. […]
The target of series [4] is T1, D2-Dopaminergic Site (striatal membranes) (Rattus norvegicus, UniProt P61169).
T1 construct: from tissue; host or cells: rat striatum (membranes)
Description: 3H-Spiroperidol binding to striatal membranes (D2-dopaminergic site). Set-up: species or system rats. The procedure:
(§1) D2 /5T-HT2 BINDING ASSAYS
^3 H-Spiroperidol Binding to Striatal Membranes (D2 -Dopaminergic Site) in Rats
Striatal membranes were incubated with ^3 H-spiroperidol (0.4 nM) and various concentrations of test drug at 37° C. for 10 minutes in 1 ml of 0.05 M Tris-HCl buffer, pH 7.7 containing 120 mM NaCl, 5 mM KCl, 2 mM CaCl2, and 1 mM MgCl2. Nonspecific binding was determined in the presence of 2μM(+)-butaclamol. Bound ligand was separated by rapid filtration through Whatman GF/B filters.

The target of series [5] is T2, 5HT2 Site (cerebral cortical membranes) (Rattus norvegicus, UniProt P14842).
T2 construct: from tissue; host or cells: rat cerebral cortex (membranes)
Nature of the series: 3H-Spiroperidol binding to cerebral cortical membranes (5HT2 site). Particulars: 3H-spiroperidol 1.5 nM, 37° C., 10 min, pH 7.7. Set-up: species or system rats. The procedure: as §1
^3 H-Spiroperidol Binding to Cerebral Cortical membranes (5HT2 Site) in Rats
Nonspecific binding was determined in the presence of 5 μM methysergide. The incubation was terminated by rapid filtration through Whatman GF/B filters.

The subject of series [6] is dopamine neurons, substantia nigra (A9). Particulars: repeated administration; background statement; cited from earlier work.
[7] abbreviates: apomorphine 1.5 mg/kg s.c., linear regression.

Here are results for four molecules from patent publication US5696113A, “Antipsychotic agents, compositions and method of use” (Hoechst Marion Roussel, Inc., priority 1996, dated 1997).

pIC50: −log10 of the molar value. Structures can show the parent of a compound that is named as a salt. Where two headings read alike, the source gives them in different places.

T1 sequence (P61169 whole entry): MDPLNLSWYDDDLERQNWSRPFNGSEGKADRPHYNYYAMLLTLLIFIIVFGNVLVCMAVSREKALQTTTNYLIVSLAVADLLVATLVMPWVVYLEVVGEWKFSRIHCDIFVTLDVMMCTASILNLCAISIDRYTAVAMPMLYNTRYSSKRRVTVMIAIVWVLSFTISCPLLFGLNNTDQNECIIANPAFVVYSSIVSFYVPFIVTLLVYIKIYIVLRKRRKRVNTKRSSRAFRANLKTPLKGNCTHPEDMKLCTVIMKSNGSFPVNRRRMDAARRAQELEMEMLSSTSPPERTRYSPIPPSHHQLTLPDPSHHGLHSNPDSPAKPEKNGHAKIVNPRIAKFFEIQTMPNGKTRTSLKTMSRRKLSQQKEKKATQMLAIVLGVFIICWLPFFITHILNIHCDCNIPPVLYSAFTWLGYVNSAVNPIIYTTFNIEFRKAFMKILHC
T2 sequence (P14842 whole entry): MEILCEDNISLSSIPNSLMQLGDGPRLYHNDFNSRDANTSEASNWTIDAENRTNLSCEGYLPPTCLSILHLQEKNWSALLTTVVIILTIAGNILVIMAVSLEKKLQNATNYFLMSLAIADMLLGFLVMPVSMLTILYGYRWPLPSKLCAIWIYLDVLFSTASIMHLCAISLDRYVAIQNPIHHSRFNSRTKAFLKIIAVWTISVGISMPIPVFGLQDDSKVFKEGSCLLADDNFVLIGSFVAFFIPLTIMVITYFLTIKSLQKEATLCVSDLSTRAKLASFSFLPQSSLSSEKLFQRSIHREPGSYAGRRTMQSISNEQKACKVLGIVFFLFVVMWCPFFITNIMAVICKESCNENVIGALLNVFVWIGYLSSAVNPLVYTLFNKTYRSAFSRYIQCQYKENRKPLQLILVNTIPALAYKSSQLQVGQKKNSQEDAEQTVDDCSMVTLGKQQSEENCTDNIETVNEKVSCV

`CN1CCN(C2=Nc3cc(Cl)ccc3Nc3ccccc32)CC1` [Clozapine]: the ED50 was 8.1 mg/kg with apomorphine climbing; > 40 mg/kg in series [1] (Rattus norvegicus, Litchfield and Wilcoxon). The “% Change in A10 region (dopamine neuron sampling)” value (“% Change in A10 region” for short) in series [2] was -79%. In addition, the “% Change in A9 region (dopamine neuron sampling)” value (“% Change in A9 region” for short) in series [3] was “+37%”. In addition, in series [3] (result in words), the “number of DA neurons in the A9 area (EPS propensity)” value is given as “do not cause a decrease in the number of DA neurons in the A9 area”.
On to `COc1ccc2c(N3CCN(CCCC(=O)c4ccc(F)cc4)CC3)noc2c1` [Example 1b, 3-[1-(4'-Fluorobenzoyl)propyl-4-piperazine]-6-methoxy-1,2-benzisoxazole], for which, in the series with apomorphine climbing (setting [7]), the ED50 is 5.28 mg/kg.
By pIC50 is commonly meant the IC50 on a negative log10 scale, so that one unit is a factor of ten. Regarding `O=C(CCCN1CCN(c2noc3cc(O)ccc23)CC1)c1ccc(F)cc1` [Example 3, 3-[1-(4'-Fluorobenzoyl)propyl-4-piperazinyl]-6-hydroxy-1,2-benzisoxazole hydrobromide], the ED50 in the series with apomorphine climbing (setting [7]) came to 0.4 mg/kg. Further, the “APOMORPHINE STEREOTYPY INHIBITION (% inhibition)” value in series [1] (at 4.0 mg/kg) was 0%. Besides, the pIC50 in series [4] (3H-spiroperidol 0.4 nM, 37° C., 10 min, pH 7.7) was 6.62; in series [5], 7.35. Besides, the D2/5-HT2 in series [4] (ratio of D2 IC50 to 5-HT2 IC50) came to 5.3. In series [2], the “% Change in A10 region” value is -44.9%. The “% Change in A9 region” value in series [3] is “+1.4%”.
With `O=C(CCCN1CCC(O)(c2ccc(Cl)cc2)CC1)c1ccc(F)cc1` [Haloperidol], the ED50 in the series with apomorphine climbing (setting [7]) is 0.11 mg/kg. Besides, the “APOMORPHINE STEREOTYPY INHIBITION (ED50)” value in series [1] (Litchfield and Wilcoxon) stood at 0.6 mg/kg. In series [2], the “% Change in A10 region” value was -35%. For the same molecule, in series [6], the “depolarization inactivation of the DA neurons in the A9 area” value was “cause a depolarization inactivation of the DA neurons in the A9 area of the brain”. In series [3], the “% Change in A9 region” value is given as -30%.
